According to BindingDB's records for doi:10.1021/acs.jmedchem.3c00566 (Sichuan University, 2023):
Values belong to the molecule of their own block, whether it stands above or below them.

Key:
[1] = target: Cyclin-dependent kinase 5/p25; assay: Inhibition of CDK5/p25 (unknown origin)
[2] = target: Cyclin-dependent kinase 2 (Homo sapiens, UniProt P24941); assay: Inhibition of CDK2 (unknown origin) expressed in baculovirus infected Sf9 cells in presence of [gamma-33p]-ATP and ATP
[3] = target: Cyclin-dependent kinase 2/cyclin A; assay: Inhibition of CDK2/cyclin A (unknown origin)

- IC50 [1]: 6.8 nM
SMILES: Cc1cc(S(=O)(=O)NCCOCCOCCOCCOCCNc2cccc3c2C(=O)N(C2CCC(=O)NC2=O)C3=O)ccc1Nc1ncc(Br)c(Nc2cccc(F)c2C(N)=O)n1 (stereo not drawn)

- IC50 [2]: 9 nM
SMILES: CC(C)c1n[nH]c2c(NCc3ccc(-c4ccccn4)cc3)nc(NCC(C)(C)O)nc12

- IC50 [3]: 10000 nM
SMILES: O=C(Nc1csc(Cc2c(Cl)cccc2Cl)n1)NN1CCOCC1 [1-[2-(2,6-Dichloro-benzyl)-thiazol-4-yl]-3-morpholin-4-yl-urea]
